# Assay results as given in patent US5430058A, “Pharmaceutical compositions comprising hydroxamate derivatives for iron removal” (Yeda Research and Development Co. Ltd., priority 1993, dated 1995).
# “Also recorded” adds a separate entry of the source. Where two headings read alike, the source gives them in different places.
# Legend:
# [1] = test system: synchronized cultures of rings (P. falciparum); experiment: Time dependence of parasite growth inhibition, rings; assay type: cell-based, Plasmodium falciparum; conditions: for Inhibitory effect, in words: rings; for inhibition at 10 µg/mL: Plasmodium falciparum, read-out: Inhibition of parasite growth
# Protocol: (§1) g. Bioassay of iron carrier antimalarial activity. The antimalarial activity was assayed by adding the compounds from concentrated stock solutions (in DMSO) to microcultures (24 wells, Costar) containing infected red cells (2.5% hematocrit and 2% parasitemia). The cultures were usually synchronized (4-7 hrs. windows) by incubation in 300 mM Ala, 10 mM TRIS-Cl in conjunction with gelatin flotation and used either at the trophozoite (1-2% parasitemia) or at the ring stage (4-6% parasitemia) of the erythrocyctic cycle. After the indicated time of incubation with drug and either previous to or after washing 3 times with 100 volumes growth medium, the cells were supplemented with 6 μCi of either [^3 H]-hypoxanthine or [^3 H]-Ileu (Amersham, England) per well and parasite growth assessed after 24-48 hours by harvesting the labelled cells onto glass-fiber filters (Tamar, Inc. Jerusalem) and counting of the radioactivity.
# (§2) To study the growth stage of parasites most sensitive to inhibition, the time dependence of the inhibitory effect of SF1-ileu (10 μg/ml) vis a vis that of DFO (80 μg/ml) was assessed both on synchronized cultures of rings and of cultures of trophozoites. The cells were exposed to the […], the cells were washed from extracellular drug and assessed for [^3 H]-hypoxanthine incorporation after the last sample completed the 4 hours incubation period with drug.
# [2] = test system: human HT29 colonic carcinoma cells; experiment: Proliferation of mammalian cells, HT29; assay type: cell-based; conditions: for Proliferation (nucleic acid synthesis): 24 hours exposure, [3H]-hypoxanthine; for Proliferation (protein synthesis): [3H]ileu incorporation, not shown
# Protocol: (§3) The possibility that the reversed siderophores might affect mammalian cells in culture was assessed in conditions identical to those used for parasites in cultures. […] Nucleic acid synthesis was measured in cultures of mouse NIH 3T3 fibroblasts and human HT29 colonic carcinoma cells in the presence of either SF1-ileu (open circles), desferrioxamine (DFO) (solid triangle) in DMSO or DMSO alone (Control) (<1% final) (open triangles) at same concentrations. Cultures at confluence were exposed to chelators for 24 hours; the first 3 hours without radiolabel and 21 hours with 6 μCi/ml of [^3 H]-hypoxanthine. Extracellular hypoxanthine was removed by several washes with PBS and the cells were treated with 5% TCA for 15 minutes at 5° C. and solubilized with hot 2.5% SDS. Samples were taken for counting of radioactivity and measurement of protein (BCA, Pierce). Data are given as dpm/μg protein and SD (duplicate samples).
# [3] = Relative iron(III) binding efficiency by competition with EDTA; assay type: physicochemical; conditions: for Relative binding: Table 1, DFO = 100, competition with EDTA in aqueous MeOH; for rel. Fe binding (b): Table 2, relative to DFO = 1.16, 0.75 mM hydroxamate, 0.15 mM EDTA, 0.15 mM Fe3+ in aqueous methanol; for Pcoeff*Fe binding (a*b): product of relative partition coefficient and relative iron(III) binding
# Protocol: c. The relative binding efficiencies of the reversed siderophores (0.75 mM reversed siderophore and 0.15 mM Fe^3+ in aqueous MeOH (MeOH-0.1N NaOAc) were incubated with EDTA (0.15 mM). After equilibration overnight, the fraction of siderophore- Fe^3+ complex present was determined at 430 nm.
# The values for Pcoeff of free RSF ileun2 (the same as SF1ileu) and of leun2 and their respective iron(III) complexes were similar (not shown).
# [4] = test system: synchronized cultures of trophozoites (P. falciparum); experiment: Time dependence of parasite growth inhibition, trophozoites; assay type: cell-based, Plasmodium falciparum; conditions: for Inhibitory effect, in words: trophozoites; for inhibition at 10 µg/mL: Plasmodium falciparum, read-out: Inhibition of parasite growth
# Protocol: as §1, §2
# [5] = test system: mouse NIH 3T3 fibroblasts; experiment: Proliferation of mammalian cells, NIH 3T3; assay type: cell-based; conditions: for Proliferation (nucleic acid synthesis): 24 hours exposure, [3H]-hypoxanthine; for Proliferation (protein synthesis): [3H]ileu incorporation, not shown
# Protocol: as §3
# uninfected red cells = experiment: Pre-incubation of uninfected red cells with chelator, effect on parasite growth; assay type: cell-based, human
# Protocol: (§4) h. The effect of pre-incubation of red cells or plasma with drug on parasite growth. Red cell suspensions (5% hematocrit) in RPMI 1640 medium pH 7.4 (no plasma) were treated for 24-48 hrs with either 100 μg/ml of chelator or DMSO alone (<1% final concentration) in culture conditions. Chelator was removed by washing the cells 4 times with RPMI followed by 1 hour incubation at 37° C. Parasite growth was assayed after addition of gelatin enriched schizonts (>90%) as described above. Human plasma (2 ml) from O+ donors was adjusted to either pH 5 with MES (to enhance chelating efficiency) or pH 7.4 (with TRIS base), and treated for 18 hrs with 100 μg/ml chelators or with DMSO. The plasma was subsequently dialyzed for 24 hours against 800 ml 0.1% bovine serum albumin (BSA), and 10 mM glucose in phosphate buffered saline (PBS) pH 7.4, followed by an additional 24 hour dialysis against 400 ml of the same buffer and supplemented to the medium for parasite growth assays.
# (§5) Plasma and uninfected red cells were separately treated with relatively high concentrations of chelators (100 μg/ml) in order to evaluate whether the site of action of the lipophilic chelators was associated with components of the plasma and/or the uninfected red cell.
# red cells = experiment: Penetration of chelator into red cells; assay type: cell-based, human
# [6] = test system: mammalian cells in culture; experiment: Growth/toxicity in mammalian cells in culture, general statement; assay type: cell-based
# Protocol: as §3
# plasma = experiment: Pre-incubation of plasma with chelator, effect on parasite growth; assay type: cell-based, human; conditions: 40 fold IC50, then dialysis
# Protocol: as §4, with “Human plasma (2 ml) from O+ donors was adjusted to either pH 5 with MES (to enhance chelating efficiency) or pH 7.4 (with TRIS base), and treated for 18 hrs with 100 μg/ml chelators or with DMSO.” left out
# as §5
# [7] = test system: human Hep2 hepatoma cells; experiment: Iron extraction from hepatoma cells (NBD-DFO fluorescence); assay type: cell-based; conditions: cells pre-exposed to chelator (80 μg/ml, 18 hour)
# [8] = 0.5 hr incubation, SF1-ileu 10 μg/ml
structure (smiles),measurement,setting,value
"CC(=O)N(O)CCCCCNC(=O)CCC(=O)N(O)CCCCCNC(=O)CCC(=O)N(O)CCCCCN [DFO, desferrioxamine B, reference compound]","Inhibitory effect, in words","[1]; DFO 80 μg/ml, 6 hrs exposure",inhibitory effects were dismal
same,"Inhibitory effect, in words","[1]; DFO 80 μg/ml, 20 hrs exposure",substantial inhibition
same,Proliferation (nucleic acid synthesis),[2],neither SF1-ileu nor DFO affected the proliferation
same,Proliferation (protein synthesis),[2],neither SF1-ileu nor DFO affected the proliferation
same,Relative binding,[3],100
same,rel. Fe binding (b),[3],1.16
same,Pcoeff*Fe binding (a*b),[3],0.065
same,"Inhibitory effect, in words","[4]; DFO 80 μg/ml, 6 hrs exposure",inhibitory effects were dismal
same,"Inhibitory effect, in words","[4]; DFO 80 μg/ml, 20 hrs exposure",substantial inhibition
same,Proliferation (nucleic acid synthesis),[5],neither SF1-ileu nor DFO affected the proliferation
same,Proliferation (protein synthesis),[5],neither SF1-ileu nor DFO affected the proliferation
CC[C@H](C)[C@H](NC(=O)CCOCC(CC)(COCCC(=O)N[C@H](C(=O)N(C)O)[C@@H](C)CC)COCCC(=O)N[C@H](C(=O)N(C)O)[C@@H](C)CC)C(=O)N(C)O [SF1-ileu],Ability of red cells to support parasite growth after pre-treatment,"uninfected red cells; 24 hour exposure, 40 fold IC50, then washing",no significant effect
same,Effect on ability of uninfected cells to support parasite growth,uninfected red cells; general statement,does not affect irreversibly the ability of uninfected cells to support parasite growth
same,Penetration into red cells,red cells,can easily penetrate into red cells
same,Growth of / toxicity to mammalian cells in culture,[6],does not affect the growth of various types of mammalian cells in culture; also recorded: not toxic to mammalian cells in culture
same,inhibition at 10 µg/mL,[1]; 2 h,~70%
same,inhibition at 10 µg/mL,[1]; 20 h,> 95%
same,"Inhibitory effect, in words",[1]; [8],major inhibitory effects
same,Proliferation (nucleic acid synthesis),[2],neither SF1-ileu nor DFO affected the proliferation
same,Proliferation (protein synthesis),[2],neither SF1-ileu nor DFO affected the proliferation
same,Relative binding,[3],25
same,rel. Fe binding (b),[3],0.29
same,Pcoeff*Fe binding (a*b),[3],2.4
same,inhibition at 10 µg/mL,[4]; 2 h,~90%
same,inhibition at 10 µg/mL,[4]; 20 h,> 95%
same,"Inhibitory effect, in words",[4]; [8],major inhibitory effects
same,Proliferation (nucleic acid synthesis),[5],neither SF1-ileu nor DFO affected the proliferation
same,Proliferation (protein synthesis),[5],neither SF1-ileu nor DFO affected the proliferation
same,Ability of plasma to support parasite growth after pre-treatment,plasma,no significant effect
same,Chelatable cytosolic iron,[7],demonstrably reduced
